In US9428506B2, “Substituted pyrido[3′,4′:4,5]pyrrolo[1,2,3-de]quinoxalines for the treatment of nervous system disorders” (INTRA-CELLULAR THERAPIES, INC., priority 2012, dated 2016):

Tests used:
5-HT2A = 5-HT2A (Homo sapiens, UniProt P28223); assay: Receptor binding activity, 5-HT2A; conditions: binding to 5-HT2A, methods of WO/2009/145900
Procedure: (§1) Binding to 5HT2A, D2 and SERT is assessed, using the methods described in WO/2009/145900. The compounds of Examples 1 and 2 are found to have potent binding to 5-HT2A, SERT and D2, with affinity constants in the sub-micromolar range: […]

D2 = D2 (Homo sapiens, UniProt P14416); assay: Receptor binding activity, D2; conditions: binding to D2, methods of WO/2009/145900
Sequence of D2 (P14416 whole entry): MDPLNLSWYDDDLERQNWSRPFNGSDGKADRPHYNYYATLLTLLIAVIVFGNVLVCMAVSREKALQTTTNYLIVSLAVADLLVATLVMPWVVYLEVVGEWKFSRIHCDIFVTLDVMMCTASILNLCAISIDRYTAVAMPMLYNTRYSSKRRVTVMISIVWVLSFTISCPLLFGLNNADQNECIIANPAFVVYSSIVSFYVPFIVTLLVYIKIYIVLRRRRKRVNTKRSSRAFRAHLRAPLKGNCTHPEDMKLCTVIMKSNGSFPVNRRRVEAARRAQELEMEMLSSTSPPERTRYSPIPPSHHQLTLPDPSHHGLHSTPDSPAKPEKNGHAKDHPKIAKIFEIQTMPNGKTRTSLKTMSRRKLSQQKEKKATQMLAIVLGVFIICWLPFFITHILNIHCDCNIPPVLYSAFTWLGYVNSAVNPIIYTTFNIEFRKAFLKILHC
Procedure: as §1

SERT = SERT (Homo sapiens, UniProt P31645); assay: Receptor binding activity, SERT; conditions: binding to SERT, methods of WO/2009/145900
Sequence of SERT (P31645 whole entry, species assumed): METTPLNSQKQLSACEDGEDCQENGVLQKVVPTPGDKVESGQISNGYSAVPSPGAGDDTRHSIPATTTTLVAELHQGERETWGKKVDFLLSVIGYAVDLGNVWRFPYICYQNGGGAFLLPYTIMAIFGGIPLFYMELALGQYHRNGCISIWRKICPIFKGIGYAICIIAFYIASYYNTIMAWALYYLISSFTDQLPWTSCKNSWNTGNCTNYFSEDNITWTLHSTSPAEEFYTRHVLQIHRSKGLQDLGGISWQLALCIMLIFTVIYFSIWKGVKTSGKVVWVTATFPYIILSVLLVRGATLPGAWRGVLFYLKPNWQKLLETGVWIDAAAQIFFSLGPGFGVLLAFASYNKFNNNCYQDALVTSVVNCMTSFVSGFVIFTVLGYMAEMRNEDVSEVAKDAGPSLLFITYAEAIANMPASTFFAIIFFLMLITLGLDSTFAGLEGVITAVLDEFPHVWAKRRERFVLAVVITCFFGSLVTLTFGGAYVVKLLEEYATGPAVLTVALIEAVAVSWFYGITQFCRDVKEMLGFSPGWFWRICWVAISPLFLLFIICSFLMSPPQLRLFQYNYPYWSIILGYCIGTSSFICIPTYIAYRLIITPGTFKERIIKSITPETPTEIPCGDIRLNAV
Procedure: as §1

Sequence of 5-HT2A (P28223 whole entry, species assumed): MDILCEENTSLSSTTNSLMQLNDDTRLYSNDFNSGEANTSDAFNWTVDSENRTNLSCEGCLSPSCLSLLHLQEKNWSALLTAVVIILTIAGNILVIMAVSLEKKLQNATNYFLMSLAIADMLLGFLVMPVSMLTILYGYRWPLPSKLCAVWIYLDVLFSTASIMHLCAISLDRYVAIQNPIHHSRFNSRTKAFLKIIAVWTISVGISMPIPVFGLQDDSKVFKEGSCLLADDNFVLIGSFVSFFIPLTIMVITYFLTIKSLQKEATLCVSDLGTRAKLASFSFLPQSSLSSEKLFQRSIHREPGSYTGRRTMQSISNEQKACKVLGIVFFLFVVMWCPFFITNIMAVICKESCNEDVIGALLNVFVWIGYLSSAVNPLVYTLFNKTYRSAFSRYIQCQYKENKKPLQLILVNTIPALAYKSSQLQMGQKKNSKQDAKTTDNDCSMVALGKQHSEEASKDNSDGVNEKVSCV

For `CN1CCN2c3c(cccc31)[C@@H]1CN(CCCC(C)(O)c3ccc(F)cc3)CC[C@@H]12` (stereo partly drawn) [Ex. 1, 2-(4-Fluoro-phenyl)-5-((6bR,10aS)-3-methyl-2,3,6b,9,10,10a-hexahydro-1H,7H-pyrido[3′,4′:4,5]pyrrolo[1,2,3-de]quinoxalin-8-yl)-pentan-2-ol], the Ki (5-HT2A) was 350 nM, the Ki (D2) was 740 nM and the Ki (SERT) was 520 nM.
Compound `COC(CCCN1CC[C@H]2[C@@H](C1)c1cccc3c1N2CCN3C)c1ccc(F)cc1` (stereo partly drawn) [Ex. 2, (6bR,10aS)-8-[4-(4-Fluoro-phenyl)-4-methoxy-butyl]-3-methyl-2,3,6b,7,8,9,10,10a-octahydro-1H-pyrido[3′,4′:4,5]pyrrolo[1,2,3-de]quinoxaline] has a Ki (5-HT2A) of 96 nM, a Ki (D2) of 810 nM and a Ki (SERT) of 300 nM.
